Assay results taken from patent US20240165097A1, “PHARMACEUTICAL COMPOSITION FOR THE TREATMENT OF ALZHEIMER'S DISEASE OR DEMENTIA” (Heptares Therapeutics Limited, priority 2021, published 2024).
Marks after values point to notes of the source that are not given here.

Test system: patients with mild-to-moderate AD
Assay: Example D: safety and tolerability, adjunctive to donepezil 10 mg per day, 4 weeks
Format: in vivo, human
Details: for Abdominal pain incidence / Accidental overdose incidence / Decreased lymphocyte count incidence / Decreased white blood cell count incidence / Diarrhoea incidence / Fatigue incidence / Headache incidence / Hyperhidrosis incidence / Lymphopenia incidence / Nausea incidence / Number of TEAEs / SAE incidence / TEAE Severity: Mild / TEAE Severity: Moderate / TEAE Severity: Severe / TEAE incidence / TEAE leading to discontinuation incidence / Treatment-related TEAE incidence / Urinary tract infection incidence / Viral upper respiratory tract infection incidence: randomised dose; for TEAE incidence during maintenance (Days 16-28) / TEAE incidence during titration (Days 1-15): Day 16 dose received
Procedure: The study was an outpatient study conducted across 18 centres in Poland, Czech Republic, Spain, and Slovakia (NCT03456349, registered at clinicaltrials.gov). Patients were assessed for eligibility during a 42-day screening period and randomised equally to either placebo or a HTL0018318 target dose of 5 mg, 15 mg, or 25 mg per day (FIG. 5A). HTL0018318 was titrated to the target dose during a 2-week titration period (FIG. 5B); investigators could maintain or reduce the dose to limit tolerability/safety issues throughout this period. The study was conducted in accordance with the principles of the Declaration of Helsinki, the International Council for Harmonisation good clinical practice guidelines, and according to all appropriate country regulatory requirements. Relevant independent ethics committees provided approval, and all patients (or their caregiver) provided written informed consent.
The primary endpoint of this study was to evaluate the safety and tolerability of HTL0018318. Safety and tolerability were assessed via the incidence and severity of treatment-emergent adverse events (TEAEs), and via evaluation during study visits of vital signs (including blood pressure [BP] and heart rate [HR]), electrocardiogram (ECG) measurements, physical and neurological examinations, laboratory haematology, clinical chemistry and urinalysis.
Safety was the primary endpoint and was assessed at all visits (screening, baseline, Day 1, Day 6±1, Day 11±1, Day 16±1, Day 28±1, and Day 35±2 [follow-up]) based on: spontaneously reported treatment-emergent adverse events (TEAEs); scheduled physical and neurological examinations; vital sign measurements (body temperature, heart rate [HR], systolic and diastolic BP [SBP and DBP]); 12-lead ECG recordings; and clinical laboratory safety panel. The C-SSRS was administered at baseline and on Day 28±1. TEAEs were coded using the Medical Dictionary for Regulatory Activities (MedDRA) Version 20.
All safety analyses used the safety set (SAF; randomised dose). The SAF (randomised dose) included all randomised patients who received at least one dose of the study drug; treatment group assignment was based on the initial randomised dose. All efficacy analyses were considered exploratory and used the full analysis set (FAS). The FAS included all randomised patients with at least one post-baseline efficacy measurement; treatment group assignment was based on the initial randomised dose. All summaries and analyses of PK data used the pharmacokinetic set (PKS). The PKS included all randomised patients with valid PK assessments; treatment group assignment was based on actual dose received.
BP and HR were measured in triplicate, both supine and standing, in the same arm throughout the study. Standing BP and HR were measured after 3 minutes of standing, and supine BP and HR after 5 minutes of lying down. Measurements were repeated if clinically significant or machine/equipment errors occurred. Out-of-range BP or HR measurements were repeated at the investigator's discretion. Any confirmed clinically significant vital sign measurements were recorded as AEs. If the following measurements were obtained, instructions for additional monitoring, or stopping dosing were to be followed: • SBP>170 mmHg; DBP>110 mmHg • SBP or DBP increase >30% from Day 1 pre-dose level.
Statistical evaluation was performed using Statistical analysis software (SAS®, SAS Institute, Cary, NC). Changes from baseline in vital signs were analysed using a mixed model for repeated measures with fixed effects for baseline, treatment, time-point and treatment by time-point interaction. The exploratory PD endpoints were analysed using an analysis of covariance with change from baseline as the dependent variable, and baseline and treatment as covariates. The least square means (LSM) for each dose (and difference from placebo) are presented with the 90% CI, P-value, and ES. […]

[1] = two highest doses (15 and 25 mg)

SMILES: CCOC(=O)N1C2CCC1CC(N1CCC3(CC1)CNC(=O)C3)C2 (stereo not shown) [HTL0018318, ethyl 3-(3-oxo-2,8-diazaspiro[4.5]dec-8-yl)-8-azabicyclo[3.2.1]octane-8-carboxylate]
- Abdominal pain incidence (5 mg (n = 15)): 1 (6.7) n (%)
- Accidental overdose incidence (5 mg (n = 15)): 1 (6.7) n (%)
- Decreased lymphocyte count incidence (5 mg (n = 15)): 0 n (%)
- Decreased white blood cell count incidence (5 mg (n = 15)): 0 n (%)
- Diarrhoea incidence (5 mg (n = 15)): 1 (6.7) n (%)
- Fatigue incidence (5 mg (n = 15)): 0 n (%)
- Headache incidence (5 mg (n = 15)): 1 (6.7) n (%)
- Hyperhidrosis incidence (5 mg (n = 15)): 0 n (%)
- Lymphopenia incidence (5 mg (n = 15)): 0 n (%)
- Nausea incidence (5 mg (n = 15)): 1 (6.7) n (%)
- Number of TEAEs (5 mg (n = 15)): 18 n
- SAE incidence (5 mg (n = 15)): 0 n (%)
- TEAE Severity: Mild (5 mg (n = 15)): 7 (46.7) n (%)
- TEAE Severity: Moderate (5 mg (n = 15)): 1 (6.7) n (%)
- TEAE Severity: Severe (5 mg (n = 15)): 1 (6.7) n (%)
- TEAE incidence (5 mg (n = 15)): 8 (53.3) n (%)
- TEAE leading to discontinuation incidence (5 mg (n = 15)): 1 (6.7)^d n (%)
- Treatment-related TEAE incidence (5 mg (n = 15)): 4 (26.7) n (%)
- Urinary tract infection incidence (5 mg (n = 15)): 1 (6.7) n (%)
- Viral upper respiratory tract infection incidence (5 mg (n = 15)): 1 (6.7) n (%)
- TEAE incidence during maintenance (Days 16-28) (5 mg (n = 17)): 4 (23.5) n (%)
- TEAE incidence during titration (Days 1-15) (5 mg (n = 17)): 8 (47.1) n (%)
- TEAE incidence during maintenance (Days 16-28) (10 mg (n = 1)): 0 n (%)
- TEAE incidence during titration (Days 1-15) (10 mg (n = 1)): 1 (100) n (%)
- Abdominal pain incidence (15 mg (n = 14)): 0 n (%)
- Accidental overdose incidence (15 mg (n = 14)): 1 (7.1) n (%)
- Decreased lymphocyte count incidence (15 mg (n = 14)): 1 (7.1) n (%)
- Decreased white blood cell count incidence (15 mg (n = 14)): 1 (7.1) n (%)
- Diarrhoea incidence (15 mg (n = 14)): 0 n (%)
- Fatigue incidence (15 mg (n = 14)): 0 n (%)
- Headache incidence (15 mg (n = 14)): 3 (21.4) n (%)
- Hyperhidrosis incidence (15 mg (n = 14)): 2 (14.3) n (%)
- Lymphopenia incidence (15 mg (n = 14)): 1 (7.1) n (%)
- Nausea incidence (15 mg (n = 14)): 1 (7.1) n (%)
- Number of TEAEs (15 mg (n = 14)): 16 n
- SAE incidence (15 mg (n = 14)): 0 n (%)
- TEAE Severity: Mild (15 mg (n = 14)): 8 (57.1) n (%)
- TEAE Severity: Moderate (15 mg (n = 14)): 1 (7.1) n (%)
- TEAE Severity: Severe (15 mg (n = 14)): 0 n (%)
- TEAE incidence (15 mg (n = 14)): 8 (57.1) n (%)
- TEAE leading to discontinuation incidence (15 mg (n = 14)): 1 (7.1)^e n (%)
- Treatment-related TEAE incidence (15 mg (n = 14)): 7 (50.0) n (%)
- Urinary tract infection incidence (15 mg (n = 14)): 0 n (%)
- Viral upper respiratory tract infection incidence (15 mg (n = 14)): 0 n (%)
- TEAE incidence during maintenance (Days 16-28) (15 mg (n = 16)): 2 (12.5) n (%)
- TEAE incidence during titration (Days 1-15) (15 mg (n = 16)): 8 (50.0) n (%)
- TEAE incidence during maintenance (Days 16-28) (25 mg (n = 11)): 2 (18.2) n (%)
- TEAE incidence during titration (Days 1-15) (25 mg (n = 11)): 6 (54.5) n (%)
- Abdominal pain incidence (25 mg (n = 16)): 0 n (%)
- Accidental overdose incidence (25 mg (n = 16)): 0 n (%)
- Decreased lymphocyte count incidence (25 mg (n = 16)): 1 (6.3) n (%)
- Decreased white blood cell count incidence (25 mg (n = 16)): 1 (6.3) n (%)
- Diarrhoea incidence (25 mg (n = 16)): 1 (6.3) n (%)
- Fatigue incidence (25 mg (n = 16)): 2 (12.5) n (%)
- Headache incidence (25 mg (n = 16)): 3 (18.8) n (%)
- Hyperhidrosis incidence (25 mg (n = 16)): 0 n (%)
- Lymphopenia incidence (25 mg (n = 16)): 1 (6.3) n (%)
- Nausea incidence (25 mg (n = 16)): 0 n (%)
- Number of TEAEs (25 mg (n = 16)): 26 n
- SAE incidence (25 mg (n = 16)): 0 n (%)
- TEAE Severity: Mild (25 mg (n = 16)): 9 (56.3) n (%)
- TEAE Severity: Moderate (25 mg (n = 16)): 4 (25.0) n (%)
- TEAE Severity: Severe (25 mg (n = 16)): 0 n (%)
- TEAE incidence (25 mg (n = 16)): 11 (68.8) n (%)
- TEAE leading to discontinuation incidence (25 mg (n = 16)): 0 n (%)
- Treatment-related TEAE incidence (25 mg (n = 16)): 5 (31.3) n (%)
- Urinary tract infection incidence (25 mg (n = 16)): 1 (6.3) n (%)
- Viral upper respiratory tract infection incidence (25 mg (n = 16)): 1 (6.3) n (%)
- serious TEAEs or deaths (5, 15, 25 mg): no serious TEAEs or deaths
- tolerability (5-25 mg adjunctive to donepezil): generally well tolerated
- orthostatic BP or HR (across doses): no significant changes
- physical or neurological examination findings, laboratory abnormalities, risk of suicide (across doses): no clinically significant physical or neurological examination findings, or laboratory abnormalities
- maximum mean elevations in SBP and DBP above placebo (all doses, at Tmax, Days 1, 6, 11): 5-10 mmHg
- patients who discontinued treatment due to TEAEs (one on 5 mg, one on 15 mg): Two
- incidences of cholinergic TEAEs (abdominal pain, diarrhoea, fatigue, nausea) [1]: 0-13%
- maximum incidences of cholinergic TEAEs [1]: 7-13%
